Square brackets hold non-standard residues; d marks the D form. Peptide text beside a SMILES is read from it. Aoda(9S-OH) = C[C@H](O)C(=O)CCCCC[C@H](N)C(=O)O; Phe(4-CN) = N#Cc1ccc(C[C@H](N)C(=O)O)cc1; Iva = CC[C@](C)(N)C(=O)O
Tests used:
[1] = target: T1, human histone deacetylase; assay: Test 1: Determination of histone deacetylase inhibitor activity; type: biochemical; conditions: partially purified human histone deacetylase from Jurkat cells; [3H] acetyl-labeled histones; 25° C., 30 minutes; read-out: Test 1: HDAC inhibitory activity IC50
T1 construct: The human histone deacetylase was partially purified from human T cell leukemia Jurkat cells
Experimental: Test 1: Determination of Histone Deacetylase Inhibitor Activity
The partial purification of human histone deacetylase, the preparation of [^3H] acetyl histones, and the assay for histone deacetylase activity were performed basically according to the method as proposed by Yoshida et al. as follows.
Partial Purification of Human Histone Deacetylase
The human histone deacetylase was partially purified from human T cell leukemia Jurkat cells. Jurkat cells (5×10^8 cells) were suspended in 40 ml of the HDA buffer consisting of 15 mM potassium phosphate, pH 7.5, 5% glycerol and 0.2 mM EDTA. After homogenization, nuclei were collected by centrifugation (35,000×g, 10 min) and homogenized in 20 ml of the same buffer supplemented with 1 M (NH4)2SO4. The viscous homogenate was sonicated and clarified by centrifugation (35,000×g, 10 min), and the deacetylase was precipitated by raising the concentration of (NH4)2SO4 to 3.5 M. The precipitated protein was dissolved in 10 ml of the HDA buffer and dialyzed against 4 liters of the same buffer. The dialyzate was then loaded onto a DEAE-cellulose (Whatman DE52) column (25×85 mm) equilibrated with the same buffer and eluted with 300 ml of a linear gradient (0-0.6 M) of NaCl. A single peak of histone deacetylase activity appeared between 0.3 and 0.4 M NaCl.
Preparation of [^3H] Acetyl Histone
To obtain [^3H] acetyl-labeled histone as the substrate for the histone deacetylase assay, 1×10^8 cells of Jurkat in 20 ml of RPMI-1640 medium (supplemented with 10% FBS, penicillin (50 units/ml) and streptomycin (50 μg/ml)) were incubated with 300 MBq [^3H] sodium acetate in the presence of 5 mM sodium butyrate for 30 minutes in 5% CO2-95% air atmosphere at 37° C. in a 75 cm^2 flask, harvested into a centrifuge tube (50 ml), collected by centrifugation at 1000 rpm for 10 minutes, and washed once with phosphate-buffered saline. The washed cells were suspended in 15 ml of ice-cold lysis buffer (10 mM Tris-HCl, 50 mM sodium bisulfite, 1% Triton X-100, 10 mM MgCl2, 8.6% sucrose, pH 6.5). After Dounce homogenization (30 stroke), the nuclei were collected by centrifugation at 1000 rpm for 10 minutes, washed 3 times with 15 ml of the lysis buffer, and once with 15 ml of ice-cooled washing buffer (10 mM Tris-HCl, 13 mM EDTA, pH 7.4) successively. The pellet was suspended in 6 ml of ice-cooled water using a mixer, and 68 μl of H2SO4 was added to the suspension to give a concentration of 0.4 N. After incubation at 4° C. for 1 hour, the suspension was centrifuged for 5 minutes at 15,000 rpm, and the supernatant was taken and mixed with 60 ml of acetone. After overnight incubation at −20° C., the coagulated material was collected by microcentrifugation, air-dried, and stored at −80° C.
Assay for Histone Deacetylase Activity
For the standard assay, 10 μl of [^3H] acetyl-labeled histones were added to 90 μl of the enzyme fraction, and the mixture was incubated at 25° C. for 30 minutes. The reaction was stopped by addition of 10 μl of HCl. The released [^3H] acetic acid was extracted with 1 ml of ethyl acetate, and 0.9 ml of the solvent layer was taken into 10 ml of toluene scintillation solution for determination of radioactivity.

[2] = system: splenic cells of Lewis rats; assay: Test 2: Determination of T-cell growth inhibitor activity (T lymphocyte blastogenesis test); type: cell-based; conditions: Lewis rat splenic cells, Concanavalin A (1 μg/ml), 72 hours, AlamarBlue Assay, read-out: Test 2: T-cell growth inhibitory activity IC50
Experimental: Test 2: Determination of T-Cell Growth Inhibitor Activity
The T lymphocyte blastogenesis test was performed in microtiter plates with each well containing 1.5×10^5 splenic cells of Lewis rats in 0.1 ml RPMI-1640 medium supplemented with 10% fetal bovine serum (FBS), […] 2-mercaptoethanol, penicilln (100 units/ml) and streptomycin (100 μg/ml), to which Concanavalin A (1 μg/ml) was added. The cells were incubated at 37° C. in a humidified atmosphere of 5% CO2 for 72 hours. After the culture period, suppressive activities of the test compounds in T lymphocyte blastogenesis were quantified by AlamarBlue (trademark) Assay. The test samples were dissolved in DMSO and further diluted with RPMI-1640 medium and added to the culture. The activities of the test compounds were expressed as IC50.

[3] = system: TNFα induced NF-κB activation; assay: Test 3: NF-κB reporter gene assay in TNFα-stimulated HEL cells; type: cell-based; conditions: HEL cells transfected with pNFκB-TA-Luc, TNFα (10 ng/ml); at doses up to 3 nM; FIG. 2
Experimental: Test 3: Effect of HDAC Inhibitor on TNFα Induced NF-κB Activation 8.75×10^6 HEL cells (JCRB0062, JCRB) were transfected with 10 μg of pNFκB-TA-Luc (Clontech, as shown in FIG. 1) by electroporation at 1750 V and 10 μF with Gene Pulser II (BIO-RAD). The cells were resuspended in 2 ml of RPMI1640 (SIGMA) supplemented with 10% FBS (MOREGATE) and aliquated 50 μl each well in 96-well tissue culture plates. After 5 hr culture at 37° C., 5% CO2, for cell function recovery, the cells were cultured in the presence or absence of TNFα (10 ng/ml) for 4 hr. TNFα stimulated cells were incubated with Compound E138 or FK506 (commercial available immunosuppresive agent, also referred as Tacrolimus) at appropriate concentrations for 1 hour prior to stimulation. For the NF-κB reporter gene assay, the transfected cells were lysed and assayed for luciferase activity with the Bright-glo Luciferase Assay System (Promega) according to the manufacturer's instructions.

[4] = system: MCP-1 production by activated THP-1 cells; assay: Test 4: MCP-1 production by activated THP-1 cells (MCP-1 ELISA); type: cell-based, human; conditions: PMA 50 ng/mL 16 hours, compound 9 hr, at doses up to 1 nM, FIG. 3
Experimental: Test 4: Effect of HDAC Inhibitor on MCP-1 Production by Activated THP-1 Cells For the measurement of MCP-1 level by ELISA, 1×10^6 THP-1 cells (JCRB0112, JCRB) were plated in 6-well tissue culture plates. The cells were cultured in RPMI1640 (SIGMA) supplemented with 10% FBS (MOREGATE) in the presence of PMA (SIGMA, 50 ng/mL) for 16 hours at 37° C., 5% CO2. After incubation, the medium was changed to RPMI1640 supplemented with 2% FBS and various concentrations of Compound E138 or FK506 were added. The cells were further cultured for 9 hr and the amount of MCP-1 protein secreted by activated THP-1 cells into the medium was determined by […] Immuno assay System human MCP-1 (Genzyme Techne) according to the manufacturer's instructions.

[5] = system: IL-2 mRNA expression in activated Jurkat cells; assay: IL-2 mRNA expression in activated Jurkat cells; type: cell-based, human; conditions: at 1 nM

CC[C@]1(C)NC(=O)[C@H](CCCCCC(=O)[C@@H](C)O)NC(=O)[C@H]2CCCN2C(=O)[C@H](Cc2ccc(F)cc2)NC1=O [Compound E17]
IC50 [1]: < 100 nM
IC50 [2]: < 50 nM

CC[C@]1(C)NC(=O)[C@H](CCCCCC(=O)[C@@H](C)O)NC(=O)[C@H]2CCCN2C(=O)[C@H](Cc2ccc(OC)cc2)NC1=O [Compound E13]
IC50 [1]: < 100 nM
IC50 [2]: < 50 nM

CC[C@]1(C)NC(=O)[C@H](CCCCCC(=O)[C@@H](C)O)NC(=O)[C@H]2CCCN2C(=O)[C@H](Cc2ccc(O)cc2)NC1=O [Compound E8]
IC50 [1]: < 100 nM
IC50 [2]: < 50 nM

CCC1(CC)NC(=O)[C@H](CCCCCC(=O)[C@@H](C)O)NC(=O)[C@H]2CCCN2C(=O)[C@H](Cc2ccccc2)NC1=O [Compound E41]
IC50 [1]: < 100 nM
IC50 [2]: < 50 nM

CC[C@@H](O)C(=O)CCCCC[C@@H]1NC(=O)[C@H]2CCCN2C(=O)[C@H](Cc2ccccc2F)NC(=O)[C@](C)(CC)NC1=O [Compound E35]
IC50 [1]: < 100 nM
IC50 [2]: < 50 nM

CC[C@]1(C)NC(=O)[C@H](CCCCCC(=O)[C@@H](C)O)NC(=O)[C@H]2CCCN2C(=O)[C@H](Cc2ccc(Cl)cc2)NC1=O [Compound E38]
IC50 [1]: < 100 nM
IC50 [2]: < 50 nM

C=CC[C@@H]1/C=C(\C)C[C@H](C)C[C@H](OC)[C@H]2O[C@@](O)(C(=O)C(=O)N3CCCC[C@H]3C(=O)O[C@H](/C(C)=C/[C@@H]3CC[C@@H](O)[C@H](OC)C3)[C@H](C)[C@@H](O)CC1=O)[C@H](C)C[C@@H]2OC [FK506, Tacrolimus]
effect on TNFα induced NF-κB activation [3]: no direct effect
effect on MCP-1 production by activated THP-1 cells [4]: no direct effect
inhibition of IL-2 mRNA expression [5]: almost completely inhibits

CC[C@]1(C)NC(=O)[C@H](CCCCCC(=O)[C@@H](C)O)NC(=O)[C@H]2CCCN2C(=O)[C@H](Cc2ccc(OCc3ccccc3)cc2)NC1=O [Compound E6]
IC50 [1]: < 100 nM
IC50 [2]: < 50 nM

CC[C@]1(C)NC(=O)[C@H](CCCCCC(=O)[C@H](C)O)NC(=O)[C@H]2CCCN2C(=O)[C@H](Cc2ccc(C#N)cc2)NC1=O [Compound E23] (cyclo([Iva][Phe(4-CN)][dP][Aoda(9S-OH)]))
IC50 [1]: < 100 nM
IC50 [2]: < 50 nM

CC[C@@H](O)C(=O)/C=C/CCC[C@@H]1NC(=O)[C@H]2CCCN2C(=O)[C@H](Cc2ccccc2)NC(=O)[C@](C)(CC)NC1=O [Compound E48]
IC50 [1]: < 100 nM
IC50 [2]: < 50 nM

CCOc1ccc(C[C@@H]2NC(=O)[C@](C)(CC)NC(=O)[C@H](CCCCCC(=O)[C@@H](C)O)NC(=O)[C@H]3CCCN3C2=O)cc1 [Compound E26]
IC50 [1]: < 100 nM
IC50 [2]: < 50 nM

CC[C@]1(C)NC(=O)[C@H](CCCCCC(=O)[C@@H](C)O)NC(=O)[C@H]2CCCN2C(=O)[C@H](Cc2ccccc2F)NC1=O [Compound E33]
IC50 [1]: < 100 nM
IC50 [2]: < 50 nM

Reference: US20060229236A1, “Cyclic tetrapeptide compound and use thereof” (FUJISAWA PHARMACEUTICAL Co. LTD., priority 2001, published 2006)
